According to the supplement of paper PMC11061612:

Key:
Experiment in all cases: combination Emax (second highest fraction inhibited in the dose matrix, 72 h); higher = more inhibition; extreme values may be limits of the assay
[1] = tested on: HuO-3N1 (Osteosarcoma)
In short: (§1)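 Cell lines in DMEM/F12 or RPMI with 10% FBS were plated in 1536-well plates, held 24 hours at 37°C, 5% CO2, then given two-drug dose matrices for 72 hours (DMSO typically 0.2%). Viability was read by CellTiter-Glo 2.0 luminescence and scaled as inhibition from 0 (vehicle wells) to 1 (blank wells). Combination Emax is the second-highest inhibition in the matrix; Bliss excess is observed combination effect minus expected EA + EB − EA·EB, EA and EB being single-agent effects.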

[2] = tested on: SNU-175 (Colorectal Carcinoma)
In short: as §1

[3] = tested on: NCI-H1623 (Lung Adenocarcinoma)
In short: as §1

[4] = tested on: KYSE-70 (Esophageal Squamous Cell Carcinoma)
In short: as §1

[5] = tested on: RPMI-8866 (Chronic Myelogenous Leukemia)
In short: as §1

[6] = tested on: COLO-684 (Endometrial Carcinoma)
In short: as §1

[7] = tested on: KYM-1 (Rhabdomyosarcoma)
In short: as §1

[8] = tested on: SK-MM-2 (Plasma Cell Myeloma)
In short: as §1

[9] = tested on: SW684 (Other Solid Carcinomas)
In short: as §1

[10] = tested on: NCI-H1563 (Lung Adenocarcinoma)
In short: as §1

[11] = tested on: AsPC-1 (Pancreatic Carcinoma)
In short: as §1

[12] = tested on: HSC-3 (Oral Cavity Carcinoma)
In short: as §1

[13] = tested on: ES-2 (Ovarian Carcinoma)
In short: as §1

[14] = tested on: EB-3 (Burkitt's Lymphoma)
In short: as §1

[15] = tested on: SJRH30 (Rhabdomyosarcoma)
In short: as §1

[16] = tested on: PANC-02-03 (Pancreatic Carcinoma)
In short: as §1

[17] = tested on: RERF-LC-KJ (Lung Adenocarcinoma)
In short: as §1

[18] = tested on: OVTOKO (Ovarian Carcinoma)
In short: as §1

[19] = tested on: Caov-3 (Ovarian Carcinoma)
In short: as §1

[20] = tested on: NCI-H810 (Non-Small Cell Lung Carcinoma)
In short: as §1

Structure (SMILES)	combination Emax [1]	combination Emax [2]	combination Emax [3]	combination Emax [4]	combination Emax [5]	combination Emax [6]	combination Emax [7]	combination Emax [8]	combination Emax [9]	combination Emax [10]	combination Emax [11]	combination Emax [12]	combination Emax [13]	combination Emax [14]	combination Emax [15]	combination Emax [16]	combination Emax [17]	combination Emax [18]	combination Emax [19]	combination Emax [20]
Cc1c2c(nn1C)CSCc1cc(n(C)n1)CSc1cc(c3ccccc3c1)OCCCc1c(C(=O)O)n(C)c3c-2c(Cl)ccc13 [AZD5991] + CCN(CCO)CCCOc1ccc2c(Nc3cc(CC(=O)Nc4cccc(F)c4)[nH]n3)ncnc2c1 [AZD2811] (first compound max 1 µM, 7x7, partner max 1 µM)	0.875	0.96	0.899	0.315	0.764	0.381	0.62	0.487	0.231	0.517	0.243	0.91	0.345	0.35	0.663	0.269	0.584	0.241	0.896	0.981
Cc1c2c(nn1C)CSCc1cc(n(C)n1)CSc1cc(c3ccccc3c1)OCCCc1c(C(=O)O)n(C)c3c-2c(Cl)ccc13 [AZD5991] + CN(C)CCCOc1ccc(-c2ccc3ncc4c(c3c2)n(C2CCOCC2)c(=O)n4C)cn1 [AZD0156] (first compound max 1 µM, 7x7, partner max 1 µM)	0.844	0.458	0.891	0.156	0.668	0.332	0.268	0.355	0.236	0.668	0.24	0.873	0.313	0.371	0.544	0.203	0.589	0.319	0.39	0.474
Cc1c2c(nn1C)CSCc1cc(n(C)n1)CSc1cc(c3ccccc3c1)OCCCc1c(C(=O)O)n(C)c3c-2c(Cl)ccc13 [AZD5991] + C[C@@H]1COCCN1C2=NC(=NC(=C2)C3(CC3)[S@](=N)(=O)C)C4=C5C=CNC5=NC=C4 [AZD6738] (first compound max 1 µM, 7x7, partner max 10 µM)	0.894	0.862	0.997	0.379	0.973	0.741	0.924	0.637	0.428	0.774	0.292	0.798	0.858	0.604	0.939	0.528	0.465	0.452	0.763	0.904
Cc1c2c(nn1C)CSCc1cc(n(C)n1)CSc1cc(c3ccccc3c1)OCCCc1c(C(=O)O)n(C)c3c-2c(Cl)ccc13 [AZD5991] + C[C@@H](Nc1cc(F)cc(F)c1)c1cc(C(=O)N(C)C)cc2c(=O)cc(N3CCOCC3)oc12 [AZD8186] (first compound max 1 µM, 7x7, partner max 3 µM)	0.893	0.723	0.986	0.173	0.592	0.42	0.497	0.271	0.454	0.824	0.235	0.536	0.264	0.262	0.588	0.232	0.527	0.605	0.374	0.3
Cc1c2c(nn1C)CSCc1cc(n(C)n1)CSc1cc(c3ccccc3c1)OCCCc1c(C(=O)O)n(C)c3c-2c(Cl)ccc13 [AZD5991] + Cc1cc2ncnn2cc1Nc1ncc2c(n1)n(C1CCOCC1)c(=O)n2C [AZD7648] (first compound max 1 µM, 7x7, partner max 10 µM)	0.85	0.461	0.952	0.159	0.533	0.315	0.265	0.375	0.298	0.701	0.246	0.52	0.313	0.456	0.478	0.183	0.48	0.41	0.388	0.514
C[C@@H]1COCCN1c1cc(C2([S@](C)(=N)=O)CC2)nc(-c2ccnc3[nH]ccc23)n1 [AZD6738] + O=C(c1cc(Cc2n[nH]c(=O)c3ccccc23)ccc1F)N1CCN(C(=O)C2CC2)CC1 [Olaparib] (first compound max 10 µM, 7x7, partner max 10 µM)	0.339	0.532	0.693	0.45	0.982	0.685	0.792	0.572	0.422	0.223	0.308	0.404	0.662	0.617	0.619	0.692	0.326	0.398	0.699	0.766
Cc1cc2ncnn2cc1Nc1ncc2c(n1)n(C1CCOCC1)c(=O)n2C [AZD7648] + C=CCn1c(=O)c2cnc(Nc3ccc(N4CCN(C)CC4)cc3)nc2n1-c1cccc(C(C)(C)O)n1 [AZD1775] (first compound max 10 µM, partner max 1 µM)	0.417	0.53	0.505	0.566	0.971	0.722	0.33	0.573	0.32	0.629	0.314	0.311	0.661	0.667	0.833	0.515	0.345	0.561	0.727	0.881
